From patent US12104201B2, “Engineered gyri-like mutein aptamers, and related methods” (CROSSLIFE TECHNOLOGIES INC., priority 2019, dated 2024) come the findings set out here.

In assay [1] the target is C. tepidium CTR107 variant E36R (SEQ ID NO:18) (Chlorobaculum tepidum, UniProt Q8KFZ1, E36R). The format is binding. Particulars: FAM.
Assay [2] has as its target T1, LIN2189 WT (L. innocua Gyrl-like protein, wild type, SEQ ID NO:6) (Listeria innocua, UniProt Q929T5).
T1 construct: recombinant, purified
T1 sequence (Q929T5 with tags, fused parts or gaps): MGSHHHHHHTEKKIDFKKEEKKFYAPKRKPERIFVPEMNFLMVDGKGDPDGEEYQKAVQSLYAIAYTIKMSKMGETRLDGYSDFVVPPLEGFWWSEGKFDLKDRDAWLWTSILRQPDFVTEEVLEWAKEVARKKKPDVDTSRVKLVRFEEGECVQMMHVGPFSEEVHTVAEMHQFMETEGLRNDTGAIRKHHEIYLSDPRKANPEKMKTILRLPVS
The experiment in a line: Fluorescence binding assay (enhancement/quenching of dye fluorescence). To be noted: 1 μM FAM, saturating protein. How it is done: (§1) Fluorescence Binding Assay
CTR107 when added at 10 μM induced a 10-fold increase in DFHBI fluorescence (FIG. 6A).
Malachite Green fluoresces in the far-red regions when stimulated by binding aptamers, therefore we monitored its fluorescence emission at 665-720 nm after exciting at 635 nm.
Thioflavin T is a benzothiazole dye that has also been used in many fluorescence applications. […] The Corn aptamer is able to bind to two Thioflavin T molecules at a homodimer interface formed by G-quadruplexes. We tested whether Gyrl-like proteins could function as fluorescence enhancement aptamers of Thioflavin T. Thioflavin T has excitation and emission maxima of […], respectively. We probed the fluorescence enhancing properties of SAV2435, CTR107 and LIN2189 variants on Thioflavin T (FIG. 8). […] All other variants display either a small 4-6 fold increase or no increase in Thioflavin T fluorescence.

In assay [3] the target is C. tepidium CTR107 variant, weakest FAM-binding aptamer from phage display library (Chlorobaculum tepidum, UniProt Q8KFZ1). The experiment in a line: Fluorescence-binding assay, Kd by nonlinear regression fit to the Hill equation.
Assay [4] addresses T2, CTR107 WT (C. tepidium Gyrl-like protein, wild type, SEQ ID NO:4) (Chlorobaculum tepidum, UniProt Q8KFZ1).
T2 construct: begins […]
In words: biochemical. Format: binding.

In assay [5] the target is T3, L. innocua LIN2189 variant E157A (SEQ ID NO:28) (Listeria innocua, UniProt Q929T5, E157A).
T3 construct: listing organism Escherichia coli is only the host
The format is binding. Particulars: FAM.

For assay [6], the target named is T4, C. tepidium CTR107 variant Y106W (SEQ ID NO:20) (Chlorobaculum tepidum, UniProt Q8KFZ1, Y106W).
T4 sequence (Q8KFZ1 with tags, fused parts or gaps Y106W): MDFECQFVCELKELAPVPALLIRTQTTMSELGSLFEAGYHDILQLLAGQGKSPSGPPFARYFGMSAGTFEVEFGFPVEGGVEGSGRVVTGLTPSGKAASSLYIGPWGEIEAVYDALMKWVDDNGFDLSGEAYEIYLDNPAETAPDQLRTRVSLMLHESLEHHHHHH
In words: biochemical. Format: binding.

Assay [7] concerns the target C. tepidium CTR107 variant, highest affinity FAM-binding aptamer from phage display library (Chlorobaculum tepidum, UniProt Q8KFZ1). In words: Fluorescence-binding assay, Kd by nonlinear regression fit to the Hill equation.
The target in assay [8] is T5, SAV2435 WT (S. aureus Gyrl-like protein, wild type, SEQ ID NO:2) (Staphylococcus aureus, UniProt A0A0H3K0Y5).
T5 construct: listing organism Escherichia coli is only the host
Format: binding.

Assay [9] has as its target T6, C. tepidium CTR107 variant E133Q (SEQ ID NO:22) (Chlorobaculum tepidum, UniProt Q8KFZ1, E133Q).
T6 sequence (Q8KFZ1 with tags, fused parts or gaps E133Q): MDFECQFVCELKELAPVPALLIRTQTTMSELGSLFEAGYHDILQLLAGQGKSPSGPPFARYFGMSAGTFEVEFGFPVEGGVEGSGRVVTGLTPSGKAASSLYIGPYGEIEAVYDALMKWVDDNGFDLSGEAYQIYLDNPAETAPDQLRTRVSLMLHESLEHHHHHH
Format: binding.

In assay [10] the target is FAM antibody. In words: Fluorescence-binding assay, Kd by nonlinear regression fit to the Hill equation.
Excerpt: as §1

For assay [11], the target named is S. aureus SAV2435 variant Y137W (SEQ ID NO:16) (Staphylococcus aureus, UniProt A0A0H3K0Y5, V105W/Y137W). Format: binding. Particulars: Acridine Orange.
Assay [12] has as its target S. aureus SAV2435 variant P106W (SEQ ID NO:12) (Staphylococcus aureus, UniProt A0A0H3K0Y5, P106W). Format: binding. To be noted: 500 nM Acridine Orange.
In assay [13] the target is S. aureus SAV2435 variant E135Q (SEQ ID NO:14) (Staphylococcus aureus, UniProt A0A0H3K0Y5, E135Q/V105W). The format is binding. Particulars: 500 nM Acridine Orange.
Assay [14] has as its target S. aureus SAV2435 variant V105W (SEQ ID NO:10) (Staphylococcus aureus, UniProt A0A0H3K0Y5, V105W). The format is binding. To be noted: 500 nM Acridine Orange.
Assay [15] addresses S. aureus SAV2435 variant N27W (SEQ ID NO:8) (Staphylococcus aureus, UniProt A0A0H3K0Y5). The format is binding. To be noted: Acridine Orange.
Assay [16] has as its system E. coli expressing CTR107 WT. The experiment in a line: In vivo drug-binding aptamer screening (ampicillin resistance). Particulars: E. coli growth, OD600, 24 hrs.
The test system of assay [17] is bacterial growth; ampicillin pre-incubated with LIN2189 (LIN2189 DUB). The experiment in a line: Ex vivo drug-metabolizing aptamer screening (bacterial growth in ampicillin pre-incubated with protein).
The subject of assay [18] is E. coli expressing SAV2435 WT. In words: In vivo drug-binding aptamer screening (ampicillin resistance). Particulars: E. coli growth, OD600, 24 hrs.
Assay [19] deals with E. coli expressing LIN2189 DUB. The description is as above. Particulars: E. coli growth, OD600, 24 hrs.
Assay [20] can be described thus: Colorimetric conversion of Iodonitrotetrazolium to Formazan. Particulars: 100 μM NADH; 500 μM Iodonitrotetrazolium; 5 minutes.
A short description of assay [21]: Acridine Orange fluorescence assay. Particulars: 500 nM Acridine Orange.
Assay [22] in a line: UV fluorescence quenching of Daunorubicin. Particulars: 5 μM daunorubicin; saturating protein.

T2 sequence (Q8KFZ1 entry or part of it): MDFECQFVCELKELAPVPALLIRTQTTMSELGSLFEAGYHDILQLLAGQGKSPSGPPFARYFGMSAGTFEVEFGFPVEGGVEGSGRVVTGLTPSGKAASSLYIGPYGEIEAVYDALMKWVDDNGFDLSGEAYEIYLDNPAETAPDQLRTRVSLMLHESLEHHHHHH
Chain of C. tepidium CTR107 variant E36R (SEQ ID NO:18) (Q8KFZ1 entry or part of it E36R): as the sequence (Q8KFZ1 entry or part of it) above, with E36R counted along it
T3 sequence (Q929T5 entry or part of it E157A): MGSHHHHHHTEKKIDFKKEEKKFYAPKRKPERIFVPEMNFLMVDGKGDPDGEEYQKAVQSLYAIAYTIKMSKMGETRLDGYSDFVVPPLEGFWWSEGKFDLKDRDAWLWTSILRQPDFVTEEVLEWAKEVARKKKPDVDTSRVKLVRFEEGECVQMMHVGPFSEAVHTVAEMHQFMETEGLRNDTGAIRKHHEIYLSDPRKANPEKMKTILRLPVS

On to 5(6)-Carboxyfluorescein [FAM], for which the fluorescence quenching result in assay [1], in assay [6] (FAM) and in assay [9] (FAM) was “loss of quenching properties” throughout. For the same molecule, the decrease in fluorescence was determined as 2 fold in assay [2] and 6 fold in assay [4] (1 μM FAM, saturating protein). Besides, the Kd in [3] stood at 3 nM; in assay [10], 8 nM. The “changes in fluorescence quenching compared to LIN2189 WT” value in [5] was “no changes”. The “affinity relative to FAM antibody” value in assay [7] was determined as 11 fold. Also, in [8] (1 μM FAM, saturating protein), the effect on fluorescence result is “no effect”.
Regarding `CN(C)c1ccc2cc3ccc(N(C)C)cc3nc2c1` [Acridine Orange], the “increase in fluorescence intensity” value in assay [4] (500 nM Acridine Orange), in assay [12], in [9] (500 nM Acridine Orange), in [13] and in [14] was “doubled” in each case. Besides, the “quenching effect on fluorescence” value in [11], in [6] (Acridine Orange), in assay [8] (Acridine Orange) and in assay [15] was 2-3 fold in each case.
In the case of `CC1(C)S[C@@H]2[C@H](NC(=O)[C@H](N)c3ccccc3)C(=O)N2[C@H]1C(=O)O` [Ampicillin], the “partial resistance up to ampicillin concentration” value in [16] is given as “up to 100 μg/ml”. For the same molecule, the “resistance up to ampicillin concentration” value in [17] was “up to 500 μg/ml”. Moreover, the susceptibility to ampicillin result in [18] is “susceptible”. Also, the “highest resistance at ampicillin concentration” value in assay [19] was 100 µg/mL.

B1: CTR107 E133Q: CTR107 variant aptamer, SEQ ID NO:22 (protein, listed as Escherichia coli)
chain: MDFECQFVCELKELAPVPALLIRTQTTMSELGSLFEAGYHDILQLLAGQGKSPSGPPFARYFGMSAGTFEVEFGFPVEGGVEGSGRVVTGLTPSGKAASSLYIGPYGEIEAVYDALMKWVDDNGFDLSGEAYQIYLDNPAETAPDQLRTRVSLMLHESLEHHHHHH
B1: the “color change of Iodonitrotetrazolium with NADH” value in [20] was “faint red signal”. For the same molecule, the “Acridine Orange fluorescence increase” value in [21] is “doubled the fluorescence intensity”.

B2: CTR107 Y106W: CTR107 variant aptamer, SEQ ID NO:20 (protein, listed as Escherichia coli)
chain: MDFECQFVCELKELAPVPALLIRTQTTMSELGSLFEAGYHDILQLLAGQGKSPSGPPFARYFGMSAGTFEVEFGFPVEGGVEGSGRVVTGLTPSGKAASSLYIGPWGEIEAVYDALMKWVDDNGFDLSGEAYEIYLDNPAETAPDQLRTRVSLMLHESLEHHHHHH
Consider B2, for which the “UV fluorescence of Daunorubicin with protein” value in assay [22] was “complete shut off of fluorescence”.

One may read the Kd as the equilibrium constant for the complex coming apart. A lower Kd goes with a tighter complex.
